# What was measured:
# aurora B = aurora B (Homo sapiens, UniProt Q96GD4); assay: radioisotope-based P81 filter-binding assay, aurora B kinase; format: biochemical; conditions: for IC50: averaged from two independent dose-response curves, read-out: Enzyme assay IC50 Aur B
# Experimental: (§1) Compounds of formula (I)-(IV) were evaluated for abilities in inhibiting protein kinases aurora B and FLT-3 activity using radioisotope-based P81 filter-binding assay (Table 1).
# FLT-3 = target: T1, FLT-3 (Homo sapiens, UniProt P36888); assay: radioisotope-based P81 filter-binding assay, FLT-3 kinase; format: biochemical; conditions: for IC50: averaged from two independent dose-response curves, read-out: Enzyme assay IC50 FLT-3
# T1 sequence (P36888 27-993): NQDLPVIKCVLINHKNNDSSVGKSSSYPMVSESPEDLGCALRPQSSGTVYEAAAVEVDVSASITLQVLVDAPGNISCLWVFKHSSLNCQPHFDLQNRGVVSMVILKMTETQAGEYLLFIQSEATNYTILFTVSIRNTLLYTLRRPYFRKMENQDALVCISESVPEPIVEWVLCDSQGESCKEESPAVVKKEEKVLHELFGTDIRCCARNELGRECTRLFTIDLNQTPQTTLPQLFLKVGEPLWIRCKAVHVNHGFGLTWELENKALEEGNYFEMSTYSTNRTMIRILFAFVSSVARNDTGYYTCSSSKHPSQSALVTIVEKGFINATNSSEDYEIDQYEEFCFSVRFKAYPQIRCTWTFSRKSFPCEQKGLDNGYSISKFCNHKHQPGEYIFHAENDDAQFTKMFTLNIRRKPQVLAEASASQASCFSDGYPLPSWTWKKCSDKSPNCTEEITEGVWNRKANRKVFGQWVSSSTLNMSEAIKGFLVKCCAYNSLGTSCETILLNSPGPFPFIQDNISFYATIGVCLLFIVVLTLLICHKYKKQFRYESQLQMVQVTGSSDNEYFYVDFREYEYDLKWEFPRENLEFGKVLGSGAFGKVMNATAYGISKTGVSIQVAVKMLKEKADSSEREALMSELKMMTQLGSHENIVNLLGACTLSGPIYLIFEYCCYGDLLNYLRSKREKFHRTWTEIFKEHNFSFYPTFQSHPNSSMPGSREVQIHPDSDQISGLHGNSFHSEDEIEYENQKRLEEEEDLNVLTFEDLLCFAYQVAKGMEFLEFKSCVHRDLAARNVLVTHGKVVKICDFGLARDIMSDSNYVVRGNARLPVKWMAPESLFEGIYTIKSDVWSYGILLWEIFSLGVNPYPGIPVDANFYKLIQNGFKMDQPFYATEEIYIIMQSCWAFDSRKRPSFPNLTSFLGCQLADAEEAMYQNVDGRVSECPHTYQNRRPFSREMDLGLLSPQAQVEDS
# Experimental: as §1
# Sequence of aurora B (Q96GD4 whole entry): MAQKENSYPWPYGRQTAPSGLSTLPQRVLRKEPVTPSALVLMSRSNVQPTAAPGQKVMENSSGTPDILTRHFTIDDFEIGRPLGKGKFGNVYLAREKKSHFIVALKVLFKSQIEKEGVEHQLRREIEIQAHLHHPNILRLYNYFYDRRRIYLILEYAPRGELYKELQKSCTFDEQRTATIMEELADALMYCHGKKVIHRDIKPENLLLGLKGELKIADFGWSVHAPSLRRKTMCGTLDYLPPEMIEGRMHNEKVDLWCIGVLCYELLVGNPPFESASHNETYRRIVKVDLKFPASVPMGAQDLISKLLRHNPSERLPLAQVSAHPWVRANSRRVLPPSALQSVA
Compound,IC50 (aurora B),melting point,IC50 (FLT-3),"inhibition at 1 µM (aurora B; compound at 1.0 μM, mean values (n=2), read-out: percent inhibition of enzyme catalytic activity, Aur B (numbers in parentheses))","inhibition at 1 µM (FLT-3; compound at 1.0 μM, mean values (n=2), read-out: percent inhibition of enzyme catalytic activity, FLT-3 (numbers in parentheses))"
"O=C1Nc2cc(NC(=O)N3CCN(c4ccc(Cl)cc4)C3=O)ccc2/C1=C/c1ccc[nH]1 [D84, (Z)—N-(3-((1H-pyrrol-2-yl)methylene)-2-oxoindolin-6-yl)-3-(4-chlorophenyl)-2-oxoimidazolidine-1-carboxamide]",> 10000 nM,> 300 °C,854 nM,–,–
"O=C1Nc2cc(NC(=O)N3CCN(c4cccc(Cl)c4)C3=O)ccc2/C1=C/c1ccc[nH]1 [D85, (Z)—N-(3-((1H-pyrrol-2-yl)methylene)-2-oxoindolin-6-yl)-3-(3-chlorophenyl)-2-oxoimidazolidine-1-carboxamide]",14.3 nM,> 300 °C,1790 nM,–,–
"O=C1Nc2cc(NC(=O)N3CCN(c4ccc(Cl)c(Cl)c4)C3=O)ccc2/C1=C/c1ccc[nH]1 [D86, (Z)—N-(3-((1H-pyrrol-2-yl)methylene)-2-oxoindolin-6-yl)-3-(3,4-dichlorophenyl)-2-oxoimidazolidine-1-carboxamide]",145 nM,> 300 °C,501 nM,–,–
"O=C1Nc2cc(NC(=O)N3CCN(c4ccc(Cl)c(C(F)(F)F)c4)C3=O)ccc2/C1=C/c1ccc[nH]1 [D87, (Z)—N-(3-((1H-pyrrol-2-yl)methylene)-2-oxoindolin-6-yl)-3-(4-chloro-3-(trifluoromethyl)phenyl)-2-oxoimidazolidine-1-carboxamide]",1040 nM,> 300 °C,569 nM,–,–
"O=C1Nc2cc(NC(=O)N3CCN(c4ccc(C(F)(F)F)cc4)C3=O)ccc2/C1=C/c1ccc[nH]1 [D88, (Z)—N-(3-((1H-pyrrol-2-yl)methylene)-2-oxoindolin-6-yl)-2-oxo-3-(4-(trifluoromethyl)phenyl)imidazolidine-1-carboxamide]",824 nM,> 300 °C,498 nM,–,–
"O=C1Nc2cc(NC(=O)N3CCN(c4ccc(F)cc4)C3=O)ccc2/C1=C/c1ccc[nH]1 [D89, (Z)—N-(3-((1H-pyrrol-2-yl)methylene)-2-oxoindolin-6-yl)-3-(4-fluorophenyl)-2-oxoimidazolidine-1-carboxamide]",37.9 nM,> 300 °C,74.1 nM,–,–
"COc1ccc(N2CCN(C(=O)Nc3ccc4c(c3)NC(=O)/C4=C\c3ccc[nH]3)C2=O)cc1 [D91, (Z)—N-(3-((1H-pyrrol-2-yl)methylene)-2-oxoindolin-6-yl)-3-(4-methoxyphenyl)-2-oxoimidazolidine-1-carboxamide]",–,294 to 299 °C (dec.),–,25.3%,26%
"Cc1ccc(N2CCN(C(=O)Nc3ccc4c(c3)NC(=O)/C4=C\c3ccc[nH]3)C2=O)cc1 [D92, (Z)—N-(3-((1H-pyrrol-2-yl)methylene)-2-oxoindolin-6-yl)-2-oxo-3-p-tolylimida-zolidine-1-carboxamide]",19.3 nM,> 300 °C,223 nM,–,–
"CN(C)c1ccc(N2CCN(C(=O)Nc3ccc4c(c3)NC(=O)/C4=C\c3ccc[nH]3)C2=O)cc1 [D93, (Z)—N-(3-((1H-pyrrol-2-yl)methylene)-2-oxoindolin-6-yl)-3-(4-(dimethylamino)-phenyl)-2-oxoimidazolidine-1-carboxamide]",24.2 nM,279 to 284 °C (dec.),1220 nM,–,–
"COc1ccc(N2CCN(C(=O)Nc3ccc4c(c3)NC(=O)/C4=C\c3[nH]c(C)c(C(=O)O)c3C)C2=O)cc1 [D95, (Z)-5-((6-(3-(4-methoxyphenyl)-2-oxoimidazolidine-1-carboxamido)-2-oxoindolin-3-ylidene)methyl)-2,4-dimethyl-1H-pyrrole-3-carboxylic acid]",3.7 nM,267 to 272 °C (dec.),39.4 nM,–,–
"Cc1[nH]c(/C=C2\C(=O)Nc3cc(NC(=O)N4CCN(C5CC5)C4=O)ccc32)c(C)c1C(=O)O [D96, (Z)-5-((6-(3-cyclopropyl-2-oxoimidazolidine-1-carboxamido)-2-oxoindolin-3-ylidene)methyl)-2,4-dimethyl-1H-pyrrole-3-carboxylic acid]",3.5 nM,> 300 °C,217 nM,–,–
"O=C1Nc2cccc(NC(=O)c3cccn(-c4ccc(F)cc4)c3=O)c2/C1=C/c1ccc[nH]1 [D103, (Z)—N-(3-((1H-pyrrol-2-yl)methylene)-2-oxoindolin-4-yl)-1-(4-fluorophenyl)-2-oxo-1,2-dihydropyridine-3-carboxamide]",> 1000 nM,> 300 °C,> 1000 nM,–,–
"O=C1Nc2ccc(NC(=O)c3cccn(-c4ccc(F)cc4)c3=O)cc2/C1=C/c1ccc[nH]1 [D104, (Z)—N-(3-((1H-pyrrol-2-yl)methylene)-2-oxoindolin-5-yl)-1-(4-fluorophenyl)-2-oxo-1,2-dihydropyridine-3-carboxamide]",> 1000 nM,> 300 °C,> 1000 nM,–,–
"Cn1cccc(C(=O)Nc2ccc3c(c2)NC(=O)/C3=C\c2ccc[nH]2)c1=O [D116, (Z)—N-(3-((1H-pyrrol-2-yl)methylene)-2-oxoindolin-6-yl)-1-methyl-2-oxo-1,2-dihydropyridine-3-carboxamide]",102 nM,> 300 °C,510 nM,–,–
"O=C1Nc2cc(NC(=O)c3cccn(CCO)c3=O)ccc2/C1=C/c1ccc[nH]1 [D117, (Z)—N-(3-((1H-pyrrol-2-yl)methylene)-2-oxoindolin-6-yl)-1-(2-hydroxyethyl)-2-oxo-1,2-dihydropyridine-3-carboxamide]",32.5 nM,298 °C (dec.),612 nM,–,–
"O=C1Nc2c(NC(=O)c3cccn(-c4ccc(F)cc4)c3=O)cccc2/C1=C/c1ccc[nH]1 [D118, (Z)—N-(3-((1H-pyrol-2-yl)methylene)-2-oxoindolin-7-yl)-1-(4-fluorophenyl)-2-oxo-1,2-dihydropyridine-3-carboxamide]",> 1000 nM,> 300 °C,> 1000 nM,–,–
"Cc1[nH]c(/C=C2\C(=O)Nc3cc(NC(=O)c4cccn(C)c4=O)ccc32)c(C)c1C(=O)O [D124, (Z)-2,4-dimethyl-5-((6-(1-methyl-2-oxo-1,2-dihydropyridine-3-carboxamido)-2-oxoindolin-3-ylidene)methyl)-1H-pyrrole-3-carboxylic acid]",14.3 nM,> 300 °C,4.2 nM,–,–
"Cc1c[nH]cc(C(=O)Nc2ccc3c(c2)NC(=O)/C3=C\c2ccc[nH]2)c1=O [D139, (Z)—N-(3-((1H-pyrrol-2-yl)methylene)-2-oxoindolin-6-yl)-5-methyl-4-oxo-1,4-dihydropyridine-3-carboxamide]",29.2 nM,> 300 °C,64.2 nM,–,–
"Cc1[nH]c(/C=C2\C(=O)Nc3cc(NC(=O)c4c[nH]cc(C)c4=O)ccc32)c(C)c1C(=O)O [D143, (Z)-2,4-dimethyl-5-((6-(5-methyl-4-oxo-1,4-dihydropyridine-3-carboxamido)-2-oxoindolin-3-ylidene)methyl)-1H-pyrrole-3-carboxylic acid]",3.7 nM,> 300 °C,194 nM,–,–
"Cc1cc(C(=O)O)[nH]c1/C=C1\C(=O)Nc2cc(NC(=O)c3c[nH]cc(-c4ccc(F)cc4)c3=O)ccc21 [D146, (Z)-5-((6-(5-(4-fluorophenyl)-4-oxo-1,4-dihydropyridine-3-carboxamido)-2-oxoindolin-3-ylidene)methyl)-4-methyl-1H-pyrrole-2-carboxylic acid]",> 1000 nM,243 °C,> 1000 nM,–,–
"Cc1[nH]c(/C=C2\C(=O)Nc3cc(NC(=O)c4c[nH]cc(-c5cc(F)cc(F)c5)c4=O)ccc32)c(C)c1CCC(=O)O [D148, (Z)-3-(5-((6-(5-(3,5-difluorophenyl)-4-oxo-1,4-dihydropyridine-3-carboxamido)-2-oxoindolin-3-ylidene)methyl)-2,4-dimethyl-1H-pyrrol-3-yl)propanoic acid]",6.7 nM,> 300 °C,50.4 nM,–,–
COc1ccc(-c2c[nH]cc(C(=O)Nc3ccc4c(c3)NC(=O)/C4=C\c3[nH]c(C)c(C(=O)N4CCN(C)CC4)c3C)c2=O)cc1 [D154],135 nM,235 °C (dec.),1.2 nM,–,–
